Test results from the NIST ThermoML archive (doi:10.1016/j.jct.2019.06.005).
Numbers after ± are expanded uncertainties.

How the values were obtained:
[1] = for surface tension liquid-gas: Maximal bubble pressure; for mass density: 100 kPa, Liquid, Vibrating tube method
[2] = xn = mol fraction of the nth substance listed; conditions: x2 = 0; for surface tension liquid-gas: Maximal bubble pressure; for mass density: 100 kPa, Liquid, Vibrating tube method

## COCC[n+]1ccn(C)c1.O=S(=O)([N-]S(=O)(=O)C(F)(F)F)C(F)(F)F
[1]; 288.15 K
  surface tension liquid-gas: 41.4 ± 4.2 mN/m
  mass density: 1515.3 ± 9.4 kg/m3
[1]; 293.15 K
  surface tension liquid-gas: 41.2 ± 4.1 mN/m
  mass density: 1510.15 ± 9.4 kg/m3
[1]; 298.15 K
  surface tension liquid-gas: 41 ± 4.1 mN/m
  mass density: 1505.03 ± 9.4 kg/m3
[1]; 303.15 K
  surface tension liquid-gas: 40.7 ± 4.1 mN/m
  mass density: 1499.92 ± 9.3 kg/m3
[1]; 308.15 K
  surface tension liquid-gas: 40.5 ± 4.1 mN/m
  mass density: 1494.83 ± 9.3 kg/m3
[1]; 313.15 K
  surface tension liquid-gas: 40.3 ± 4 mN/m
  mass density: 1489.77 ± 9.3 kg/m3
[1]; 318.15 K
  surface tension liquid-gas: 40.1 ± 4 mN/m
  mass density: 1484.72 ± 9.2 kg/m3

## CCO [ethanol] + COCC[n+]1ccn(C)c1.O=S(=O)([N-]S(=O)(=O)C(F)(F)F)C(F)(F)F
[2]; 288.15 K
  surface tension liquid-gas: 23.3 ± 2.3 mN/m
  mass density: 793.91 ± 4.9 kg/m3
[2]; 293.15 K
  surface tension liquid-gas: 22.7 ± 2.3 mN/m
  mass density: 789.66 ± 4.9 kg/m3
[2]; 298.15 K
  surface tension liquid-gas: 22.2 ± 2.2 mN/m
  mass density: 785.73 ± 4.9 kg/m3
[2]; 303.15 K
  surface tension liquid-gas: 21.6 ± 2.2 mN/m
  mass density: 781.05 ± 4.8 kg/m3
[2]; 308.15 K
  surface tension liquid-gas: 21.1 ± 2.1 mN/m
  mass density: 776.7 ± 4.8 kg/m3
[2]; 313.15 K
  surface tension liquid-gas: 20.7 ± 2.1 mN/m
  mass density: 772.31 ± 4.8 kg/m3
[2]; 318.15 K
  surface tension liquid-gas: 20 ± 2 mN/m
  mass density: 767.88 ± 4.8 kg/m3

## CO [methanol]
[1]; 288.15 K
  surface tension liquid-gas: 24.4 ± 2.4 mN/m
  mass density: 796.037 ± 4.9 kg/m3
[1]; 293.15 K
  surface tension liquid-gas: 23.8 ± 2.4 mN/m
  mass density: 791.352 ± 4.9 kg/m3
[1]; 298.15 K
  surface tension liquid-gas: 22.9 ± 2.3 mN/m
  mass density: 786.643 ± 4.9 kg/m3
[1]; 303.15 K
  surface tension liquid-gas: 22.3 ± 2.2 mN/m
  mass density: 781.913 ± 4.8 kg/m3
[1]; 308.15 K
  surface tension liquid-gas: 21.8 ± 2.2 mN/m
  mass density: 777.16 ± 4.8 kg/m3
[1]; 313.15 K
  surface tension liquid-gas: 21.1 ± 2.1 mN/m
  mass density: 772.38 ± 4.8 kg/m3
[1]; 318.15 K
  surface tension liquid-gas: 20.5 ± 2.1 mN/m
  mass density: 767.567 ± 4.8 kg/m3

## CO [methanol] + COCC[n+]1ccn(C)c1.O=S(=O)([N-]S(=O)(=O)C(F)(F)F)C(F)(F)F
[2]; 288.15 K
  surface tension liquid-gas: 24.4 ± 2.4 mN/m
  mass density: 796.037 ± 4.9 kg/m3
[2]; 293.15 K
  surface tension liquid-gas: 23.8 ± 2.4 mN/m
  mass density: 791.352 ± 4.9 kg/m3
[2]; 298.15 K
  surface tension liquid-gas: 22.9 ± 2.3 mN/m
  mass density: 786.643 ± 4.9 kg/m3
[2]; 303.15 K
  surface tension liquid-gas: 22.3 ± 2.2 mN/m
  mass density: 781.913 ± 4.8 kg/m3
[2]; 308.15 K
  surface tension liquid-gas: 21.8 ± 2.2 mN/m
  mass density: 777.16 ± 4.8 kg/m3
[2]; 313.15 K
  surface tension liquid-gas: 21.1 ± 2.1 mN/m
  mass density: 772.38 ± 4.8 kg/m3
[2]; 318.15 K
  surface tension liquid-gas: 20.5 ± 2.1 mN/m
  mass density: 767.567 ± 4.8 kg/m3
